Where two headings read alike, the source gives them in different places.

Data on 58 molecules can be found in patent US8765959B2, “Piperidine derivatives” (Boehringer Ingelheim International GmbH, priority 2011, dated 2014).

This test deals with T1, human ACC2 (Homo sapiens, UniProt O00763).
T1 construct: made in house; host or cells: insect cells (baculoviral expression system)
As to the kind of experiment: ACC2 assay, spectrophotometric 384 well assay (NADH-linked, coupled lactate dehydrogenase/pyruvate kinase). Type of test: biochemical. As for the experimental part: Spectrophotometric 384 Well Assay
Malonyl CoA formation by acetyl CoA carboxylases is stoichometrically linked to the consumption of ATP. ACC2 activity is measured in a NADH-linked kinetic method measuring ADP generated during the ACC reaction using a coupled lactate dehydrogenase/pyruvate kinase reaction.
For biological testing, a human ACC2 construct which lacks the 128 amino acids at the N-terminus for increased solubility (nt 385-6966 in Genbank entry AJ575592) is cloned. The protein is then expressed in insect cells using a baculoviral expression system. Protein purification is performed by anion exchange.
All compounds are dissolved in dimethyl sulfoxide (DMSO) to a concentration of 10 mM.
Assay reactions are then carried out in 384-well plates, with hACC2 in an appropriate dilution and at final assay concentrations (f.c.) of 100 mM Tris (pH 7.5), 10 mM trisodium citrate, 25 mM KHCO3, 10 mM MgCl2, 0.5 mg/ml BSA, 3.75 mM reduced L-glutathione, 15 U/ml lactate dehydrogenase, 0.5 mM phosphoenolpyruvate, 15 U/ml pyruvate kinase, compounds at different concentrations at final DMSO concentrations of 1%.
The enzymatic reaction is then started by addition of a mixture of NADH, acetyl Coenzyme A (both 200 μM f.c.) and ATP (500 uM f.c.). The decrease of the optical density (slope S) is then determined at 25° C. at a wavelength of 340 nm over 15 minutes in a spectrophotometric reader.
Each assay microtiter plate contains wells with vehicle instead of compound as controls for the non-inhibited enzyme (100% CTL; ‘HIGH’) and wells without acetyl-CoA as controls for non-specific NADH degradation (0% CTL; ‘LOW’).
The slope S is used for calculation of % CTL=(S(compound)−S(‘LOW’))/(S(‘HIGH’)−S(‘LOW’))*100. Compounds will give values between 100% CTL (no inhibition) and 0% CTL (complete inhibition).
For IC50 value determination, the sample slope in the presence of the test compound after subtraction of the low controls (S(compound)−S(‘LOW’)) are used.
An IC50 value is derived from the compound slopes at different dosages after subtraction of the low controls (S(compound)−S(‘LOW’)) by non-linear regression curve fitting (equation y=(A+((B−A)/(1+((C/x)^D))))).

[1] abbreviates: ACC2 assay, human ACC2 construct lacking 128 N-terminal amino acids, 25° C., 340 nm, 15 minutes, read-out: IC50.

T1 sequence (O00763 129-2458 limits assumed): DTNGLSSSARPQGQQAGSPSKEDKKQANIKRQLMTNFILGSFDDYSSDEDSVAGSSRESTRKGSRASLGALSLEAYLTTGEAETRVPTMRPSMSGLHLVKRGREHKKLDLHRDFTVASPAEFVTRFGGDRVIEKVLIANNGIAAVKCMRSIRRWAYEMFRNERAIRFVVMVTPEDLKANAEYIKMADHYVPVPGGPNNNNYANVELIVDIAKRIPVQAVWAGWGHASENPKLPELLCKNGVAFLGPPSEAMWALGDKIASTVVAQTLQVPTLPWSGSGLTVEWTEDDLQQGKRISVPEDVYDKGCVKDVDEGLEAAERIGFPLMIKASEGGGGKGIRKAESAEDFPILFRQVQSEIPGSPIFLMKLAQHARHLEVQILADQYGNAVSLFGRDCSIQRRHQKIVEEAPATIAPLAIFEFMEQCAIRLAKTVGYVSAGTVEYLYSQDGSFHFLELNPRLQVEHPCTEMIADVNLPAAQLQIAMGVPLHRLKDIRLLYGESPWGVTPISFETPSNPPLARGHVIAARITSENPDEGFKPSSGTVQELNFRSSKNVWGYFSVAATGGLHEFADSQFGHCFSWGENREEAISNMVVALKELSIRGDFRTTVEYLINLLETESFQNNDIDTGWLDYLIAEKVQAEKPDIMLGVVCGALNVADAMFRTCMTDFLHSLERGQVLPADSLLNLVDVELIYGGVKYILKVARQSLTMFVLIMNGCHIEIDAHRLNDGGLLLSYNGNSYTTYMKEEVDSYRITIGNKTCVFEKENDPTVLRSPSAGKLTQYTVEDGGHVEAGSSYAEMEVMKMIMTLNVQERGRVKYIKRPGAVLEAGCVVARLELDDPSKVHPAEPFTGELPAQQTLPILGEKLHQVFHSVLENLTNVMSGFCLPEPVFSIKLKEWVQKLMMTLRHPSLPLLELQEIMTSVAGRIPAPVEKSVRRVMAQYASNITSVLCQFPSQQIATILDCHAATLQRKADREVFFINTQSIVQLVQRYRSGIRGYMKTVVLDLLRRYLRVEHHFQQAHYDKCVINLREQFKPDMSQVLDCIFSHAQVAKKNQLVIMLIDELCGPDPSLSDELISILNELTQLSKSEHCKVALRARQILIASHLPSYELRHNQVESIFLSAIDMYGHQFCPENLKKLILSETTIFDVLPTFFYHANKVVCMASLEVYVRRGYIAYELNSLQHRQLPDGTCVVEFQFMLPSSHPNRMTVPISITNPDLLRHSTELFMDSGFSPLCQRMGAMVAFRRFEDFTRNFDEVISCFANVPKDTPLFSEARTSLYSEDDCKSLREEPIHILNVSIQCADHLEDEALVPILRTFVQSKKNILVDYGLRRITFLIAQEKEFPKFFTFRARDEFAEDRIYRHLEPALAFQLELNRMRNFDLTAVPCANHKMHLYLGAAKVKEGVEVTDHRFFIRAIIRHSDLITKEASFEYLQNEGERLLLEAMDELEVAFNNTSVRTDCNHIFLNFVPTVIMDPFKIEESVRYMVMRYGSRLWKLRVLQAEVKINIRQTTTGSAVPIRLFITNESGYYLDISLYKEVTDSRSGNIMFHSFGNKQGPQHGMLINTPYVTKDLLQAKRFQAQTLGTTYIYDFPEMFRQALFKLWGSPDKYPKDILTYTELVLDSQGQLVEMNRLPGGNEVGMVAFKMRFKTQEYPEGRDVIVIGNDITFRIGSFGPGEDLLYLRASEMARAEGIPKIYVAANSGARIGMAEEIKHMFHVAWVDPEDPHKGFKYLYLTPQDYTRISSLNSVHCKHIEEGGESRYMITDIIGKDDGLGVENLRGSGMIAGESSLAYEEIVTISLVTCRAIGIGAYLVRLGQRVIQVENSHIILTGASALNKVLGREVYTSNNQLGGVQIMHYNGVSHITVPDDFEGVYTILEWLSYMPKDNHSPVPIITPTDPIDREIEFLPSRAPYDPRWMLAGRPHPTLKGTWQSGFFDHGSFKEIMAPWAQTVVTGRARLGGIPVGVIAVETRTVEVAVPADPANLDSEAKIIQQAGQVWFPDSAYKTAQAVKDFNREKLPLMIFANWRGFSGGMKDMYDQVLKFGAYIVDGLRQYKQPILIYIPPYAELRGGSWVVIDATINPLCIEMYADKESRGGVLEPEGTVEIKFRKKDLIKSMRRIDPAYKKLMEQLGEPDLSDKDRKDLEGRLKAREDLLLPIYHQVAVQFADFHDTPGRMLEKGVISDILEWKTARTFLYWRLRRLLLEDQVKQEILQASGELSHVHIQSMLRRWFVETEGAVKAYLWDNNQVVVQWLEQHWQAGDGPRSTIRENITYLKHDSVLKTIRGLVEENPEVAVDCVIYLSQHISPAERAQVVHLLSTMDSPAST

As a reminder, the IC50 is the concentration needed to halve the response being measured. As to `CCCOc1ccc(C2CCN(c3ccc([C@H](C)NC(C)=O)cc3)CC2)cc1` [Example 1.1, (S)—N-(1-{4-[4-(4-Propoxy-phenyl)-piperidin-1-yl]-phenyl}-ethyl)-acetamide], under setting [1], the IC50 worked out at 70 nM.
On the same count and under the same terms, the value for `CCOc1ccc(C2CCN(c3ccc([C@H](C)NC(C)=O)cc3)CC2)cc1` [Example 1.2] was 150 nM; that for `CCCOc1ccc(C2CCN(c3ccc([C@H](C)NC(C)=O)cc3)CC2)c(C)c1` [Example 1.3] was 50 nM.
The same measure, in the same setting: the same measure for `CC(=O)N[C@@H](C)c1ccc(N2CCC(c3ccc(OC4CCC4)cc3)CC2)cc1` [Example 1.4]: 230 nM; for `CC(=O)N[C@@H](C)c1ccc(N2CCC(c3cccc(OCC4CC4)c3)CC2)cc1` [Example 1.5]: 880 nM; for `CCOc1cccc(C2CCN(c3ccc([C@H](C)NC(C)=O)cc3)CC2)c1` [Example 1.6]: 1120 nM.
Same read-out and setting: the same measure for `CC(=O)N[C@@H](C)c1ccc(N2CCC(c3ccc(OCC4CC4(F)F)cc3)CC2)cc1` (stereo partly shown) [Example 1.7]: 90 nM; for `CCOc1ccc(C2CCN(c3ccc([C@H](C)NC(=O)C4CC4)cc3)CC2)cc1` [Example 1.8]: 680 nM; for `CC(C)Oc1ccc(C2CCN(c3ccc([C@H](C)NC(=O)N(C)C)cc3)CC2)cc1` [Example 1.9]: 610 nM.
With `CC(C)Oc1ccc(C2CCN(c3ccc([C@H](C)NC(=O)C4CC4)cc3)CC2)cc1` [Example 1.10], under setting [1], the IC50 worked out at 800 nM.
Same read-out and setting: the value for `CCOc1ccc(C2CCN(c3ccc([C@H](C)NC(C)=O)cc3)CC2)c(OC)c1` [Example 1.11] was 440 nM; that for `CCOc1ccc(C2CCN(c3ccc([C@H](C)NC(C)=O)cc3)CC2)cn1` [Example 1.12] was 3170 nM; that for `CC(=O)N[C@@H](C)c1ccc(N2CCC(c3cccc(OC4CCC4)c3)CC2)cc1` [Example 1.14] was 450 nM.
On to `C[C@H](NC(=O)C1CC1)c1ccc(N2CCC(c3ccc(OCC4CC4)cc3)CC2)cc1` [Example 1.15], for which, under setting [1], the IC50 came to 1850 nM.
Still for that read-out and setting: the same measure for `C[C@H](NC(=O)C1CC1)c1ccc(N2CCC(c3ccc(OC4CCC4)cc3)CC2)cc1` [Example 1.16]: 1240 nM; for `CCOc1ccc(C2CCN(c3ccc([C@H](C)NC(=O)N(C)C)cc3)CC2)cc1` [Example 1.17]: 820 nM.
On the same count and under the same terms, the value for `CCOc1cc(C2CCN(c3ccc([C@H](C)NC(C)=O)cc3)CC2)ccn1` [Example 1.19] was 820 nM.
`CCCOc1cccc(C2CCN(c3ccc([C@H](C)NC(C)=O)cc3)CC2)c1` [Example 1.20]: the IC50 under setting [1] is 660 nM.
For `CCCOc1ccc(C2CCN(c3ccc([C@H](C)NC(=O)C4CC4)cc3)CC2)cc1` [Example 1.21], under setting [1], the IC50 stood at 640 nM.
On the same count and under the same terms, the value for `C[C@H](NC(=O)N(C)C)c1ccc(N2CCC(c3ccc(OC4CCC4)cc3)CC2)cc1` [Example 1.22] was 250 nM.
On the same count and under the same terms, the value for `C[C@H](NC(=O)N(C)C)c1ccc(N2CCC(c3ccc(OCC4CC4)cc3)CC2)cc1` [Example 1.24] was 540 nM; that for `CC(=O)N[C@@H](C)c1ccc(N2CCC(c3cccc(OC(C)C)c3)CC2)cc1` [Example 1.25] was 370 nM.
As for `CCCOc1ccc(C2CCN(c3ccc([C@H](C)NC(=O)N(C)C)cc3)CC2)cc1` [Example 1.26], under setting [1], the IC50 was 340 nM.
The same measure, in the same setting: the same measure for `COc1ccc(C2CCN(c3ccc([C@H](C)NC(C)=O)cc3)CC2)cc1` [Example 1.27]: 2160 nM; for `CC(=O)NC(C)c1ccc(N2CCC(c3ccc(OCC4CC4)cc3F)CC2)c(F)c1` (stereo not shown) [Example 1.31]: 150 nM; for `CCCOc1ccc(C2CCN(c3ccc(C(C)NC(C)=O)cc3F)CC2)cc1` (stereo not shown) [Example 1.32]: 230 nM.
The same measure, in the same setting: the same measure for `CC(=O)NC(C)c1ccc(N2CCC(c3ccc(OC(C)C)cc3)CC2)c(F)c1` (stereo not shown) [Example 1.33]: 460 nM; for `CCOc1cccc(C2CCN(c3ccc(C(C)NC(C)=O)c(F)c3)CC2)c1` (stereo not shown) [Example 1.41]: 1270 nM; for `CC(=O)NC(C)c1ccc(N2CCC(c3cccc(OC(C)C)c3)CC2)cc1F` (stereo not shown) [Example 1.42]: 1260 nM.
Same read-out and setting: the value for `CCCOc1ccc(C2CCN(c3ccc(C(C)NC(C)=O)c(F)c3)CC2)c(C)c1` (stereo not shown) [Example 1.44] was 160 nM; that for `CCOc1ccc(C2CCN(c3ccc(C(C)NC(C)=O)c(F)c3)CC2)cc1` (stereo not shown) [Example 1.45] was 350 nM.
With `CC(=O)NC(C)c1ccc(N2CCC(c3ccc(OC(C)C)cc3)CC2)cc1F` (stereo not shown) [Example 1.46], the IC50 under setting [1] came out at 370 nM.
Consider `CC(=O)NC(C)c1ccc(N2CCC(c3cccc(OC4CCC4)c3)CC2)cc1F` (stereo not shown) [Example 1.47], for which the IC50 under setting [1] was found to be 430 nM.
Same read-out and setting: the same measure for `CC(=O)NC(C)c1ccc(N2CCC(c3ccc(OCC4CC4)cc3F)CC2)cc1F` (stereo not shown) [Example 1.48]: 460 nM; for `COc1cc(C(C)NC(C)=O)ccc1N1CCC(c2ccc(OC3CCC3)cc2)CC1` (stereo not shown) [Example 1.51]: 4410 nM; for `CCCOc1ccc(C2CCN(c3ccc(C(C)NC(C)=O)cc3OC)CC2)cc1` (stereo not shown) [Example 1.52]: 4230 nM.
Still for that read-out and setting: the same measure for `CCOc1ccc(C2CCN(c3ccc(CC(C)NC(C)=O)cc3)CC2)cc1` (stereo not shown) [Example 1.60]: 1220 nM; for `COc1ccc(C2CCN(c3ccc(CC(C)NC(C)=O)cc3)CC2)cc1` (stereo not shown) [Example 1.61]: 4470 nM; for `CCOc1ccc(C2CCN(c3ccc(CCC(C)NC(C)=O)cc3)CC2)cc1` (stereo not shown) [Example 1.70]: 8470 nM.
Consider `CCOc1ccc(C2CCN(c3ccc([C@H](C)NC(=O)C4(C#N)CC4)cc3)CC2)cc1` [Example 2.1, (S)-1-Cyano-cyclopropanecarboxylic acid (1-{4-[4-(4-ethoxy-phenyl)-piperidin-1-yl]-phenyl}-ethyl)-amide], for which the IC50 under setting [1] amounted to 4150 nM.
The same measure, in the same setting: the value for `CCOc1ccc(C2CCN(c3ccc([C@H](C)NC(=O)c4cncs4)cc3)CC2)cc1` [Example 2.2] was 690 nM; that for `CCOc1ccc(C2CCN(c3ccc([C@H](C)NC(=O)CSC)cc3)CC2)cc1` [Example 2.3] was 1210 nM.
Still for that read-out and setting: the same measure for `CCOc1ccc(C2CCN(c3ccc([C@H](C)NC(=O)CC)cc3)CC2)cc1` [Example 2.4]: 710 nM; for `CCOc1ccc(C2CCN(c3ccc([C@H](C)NC(=O)COC)cc3)CC2)cc1` [Example 2.5]: 6910 nM; for `CCOc1ccc(C2CCN(c3ccc([C@H](C)NC(=O)C(F)(F)F)cc3)CC2)cc1` [Example 2.6]: 110 nM.
For `CCOc1ccc(C2CCN(c3ccc([C@H](C)NC(=O)C4(C)CC4)cc3)CC2)cc1` [Example 2.7], the IC50 under setting [1] came out at 520 nM.
As to `CCOc1ccc(C2CCN(c3ccc([C@H](C)NC(=O)c4coc(NC(C)=O)n4)cc3)CC2)cc1` [Example 3.1, (S)-2-Acetylamino-oxazole-4-carboxylic acid (1-{4-[4-(4-ethoxy-phenyl)-piperidin-1-yl]-phenyl}-ethyl)-amide], under setting [1], the IC50 stood at 2770 nM.
Take `CCOc1ccc(C2CCN(c3ccc([C@H](C)NC(=O)C(F)F)cc3)CC2)cc1` [Example 3.2]: under setting [1], the IC50 came out at 380 nM.
Same read-out and setting: the value for `CCOc1ccc(C2CCN(c3ccc([C@H](C)NC(=O)C(C)F)cc3)CC2)cc1` (stereo partly shown) [Example 3.3] was 760 nM; that for `CCOc1ccc(C2CCN(c3ccc([C@H](C)NC(=O)Cc4cc[nH]c4)cc3)CC2)cc1` [Example 3.4] was 4880 nM; that for `CCOc1ccc(C2CCN(c3ccc([C@H](C)NC(=O)c4cncc(NC(C)=O)c4)cc3)CC2)cc1` [Example 3.5] was 4530 nM.
`CCOc1ccc(C2CCN(c3ccc([C@H](C)NC(=O)c4sc(NC(C)=O)nc4C)cc3)CC2)cc1` [Example 3.6]: the IC50 under setting [1] turned out to be 200 nM.
Same read-out and setting: the value for `CCOc1ccc(C2CCN(c3ccc([C@H](C)NC(=O)c4csc(NC(C)=O)n4)cc3)CC2)cc1` [Example 3.7] was 1480 nM.
Molecule `CCOc1ccc(C2CCN(c3ccc([C@H](C)NC(=O)CF)cc3)CC2)cc1` [Example 3.8] came in with an IC50 of 440 nM.
As to `CCOc1ccc(C2CCN(c3ccc([C@H](C)NC(=O)CO)cc3)CC2)cc1` [Example 3.9], the IC50 under setting [1] is 4980 nM.
For `CCOc1ccc(C2CCN(c3ccc([C@H](C)NC(=O)N(C)CC)cc3)CC2)cc1` [Example 4.1, (S)-3-(1-{4-[4-(4-Ethoxy-phenyl)-piperidin-1-yl]-phenyl}-ethyl)-1-ethyl-1-methyl-urea], the IC50 under setting [1] came out at 1980 nM.
The same measure, in the same setting: the value for `CCOc1ccc(C2CCN(c3ccc([C@H](C)NC(=O)N(C)c4cccnc4)cc3)CC2)cc1` [Example 4.2] was 1160 nM; that for `CCOc1ccc(C2CCN(c3ccc([C@H](C)NC(=O)N4CCOCC4)cc3)CC2)cc1` [Example 4.3] was 2360 nM.
